Reference: ChEMBL document CHEMBL4483862, “Open-source discovery of chemical leads for next-generation chemoprotective antimalarials” (2018)

System: Plasmodium berghei
Assay: Luciferase/luciferin-expressing antifolate-resistant parasites were used to infect a culture of HepG2 cells that were pre-incubated with compounds. Infected hepatocytes emit light due to the luciferase reaction. Assay results are presented as the percent inhibition of light emission compared to control. […]
Format: functional
Conditions: sporozoite; for IC90: read-out: LUCIFERASE INFECTION ASSAY - IC90

c1ccc(Oc2ccccc2-c2cn3c(-c4ccncc4)cnc3cn2)cc1
IC50 (PBLUC_HILL_SLOPE 3.74, PBLUC_R_SQUARED 0.758, read-out: LUCIFERASE INFECTION ASSAY - IC50): 4.9 µM | IC90: 8.82 µM

Cc1cc(C(=O)NCCc2cccc(F)c2)c(C)n1C(C)C
IC50 (PBLUC_HILL_SLOPE 3.76, PBLUC_R_SQUARED 0.418, read-out: LUCIFERASE INFECTION ASSAY - IC50): 0.0203 µM | IC90: 0.0364 µM

Cc1nc2ccccc2n1CCC(=O)Nc1cccc(C(F)(F)F)c1
IC50 (PBLUC_HILL_SLOPE 3.83, PBLUC_R_SQUARED 0.29, read-out: LUCIFERASE INFECTION ASSAY - IC50): 4.95 µM | IC90: 8.78 µM

O=C(NCCCn1cnc2ccccc21)c1ccccc1Nc1ccccc1
IC50 (PBLUC_HILL_SLOPE 3.77, PBLUC_R_SQUARED 0.592, read-out: LUCIFERASE INFECTION ASSAY - IC50): 7.09 µM | IC90: > 10 µM

COc1cccc(-c2nc3ccc(NC(=O)Nc4ccc5c(c4)OCO5)cn3n2)c1
IC50 (PBLUC_HILL_SLOPE 3.78, PBLUC_R_SQUARED 0.75, read-out: LUCIFERASE INFECTION ASSAY - IC50): 7.06 µM | IC90: > 10 µM

COc1cc2c(c(OC)c1OC)Cc1cc(OC)c(OC)c(OC)c1C2
IC50 (PBLUC_HILL_SLOPE 3.89, PBLUC_R_SQUARED 0.32, read-out: LUCIFERASE INFECTION ASSAY - IC50): 4.36 µM | IC90: 7.66 µM

CC(=O)c1cccc(-c2cnc3cnc(-c4ccccc4Cl)cn23)c1
IC50 (PBLUC_HILL_SLOPE 3.8, PBLUC_R_SQUARED 0.614, read-out: LUCIFERASE INFECTION ASSAY - IC50): 6.8 µM | IC90: > 9.49 µM

Cc1cccc(N(C)c2ccnc3c(-c4ccc(C(=O)NC5CC5)cc4)cnn23)c1
IC50 (PBLUC_HILL_SLOPE 3.89, PBLUC_R_SQUARED 0.384, read-out: LUCIFERASE INFECTION ASSAY - IC50): 3.6 µM | IC90: 6.33 µM

Cc1nn(-c2ccc(C(=O)N(Cc3ccccc3)Cc3nc(=O)c4ccccc4[nH]3)cc2)c(C)c1Cl
IC50 (PBLUC_HILL_SLOPE 3.8, PBLUC_R_SQUARED 0.516, read-out: LUCIFERASE INFECTION ASSAY - IC50): 1.98 µM | IC90: 3.52 µM

CCOc1ccccc1C=C(c1nc2ccccc2s1)c1nc2ccccc2s1
IC50 (PBLUC_HILL_SLOPE 3.78, PBLUC_R_SQUARED 0.344, read-out: LUCIFERASE INFECTION ASSAY - IC50): 5.48 µM | IC90: 9.81 µM

CN(Cc1ccc2c(c1)OCO2)c1ccc(C(=O)NC2CC2)cn1
IC50 (PBLUC_HILL_SLOPE 3.82, PBLUC_R_SQUARED 0.17, read-out: LUCIFERASE INFECTION ASSAY - IC50): 6.72 µM | IC90: > 10 µM

COc1ccnc(N2CCN(C(c3ccccc3)c3ccccc3)CC2)c1C#N
IC50 (PBLUC_HILL_SLOPE 3.87, PBLUC_R_SQUARED 0.686, read-out: LUCIFERASE INFECTION ASSAY - IC50): 5.89 µM | IC90: > 8.58 µM

Cc1cc(C)cc(NC(=S)NC2CCCC(C)C2C)c1 (stereo unspecified)
IC50 (PBLUC_HILL_SLOPE 3.85, PBLUC_R_SQUARED 0.565, read-out: LUCIFERASE INFECTION ASSAY - IC50): 5.32 µM | IC90: 9.4 µM

FC(F)(F)c1cc(NCc2ccc(Cl)cc2)nc(-c2ccccn2)n1
IC50 (PBLUC_HILL_SLOPE 3.87, PBLUC_R_SQUARED 0.118, read-out: LUCIFERASE INFECTION ASSAY - IC50): 5.66 µM | IC90: > 9.05 µM

CC(C)c1ccc(CN2CCN(C(=O)CNC(=O)c3ccc(Br)o3)CC2)cc1
IC50 (PBLUC_HILL_SLOPE 3.89, PBLUC_R_SQUARED 0.276, read-out: LUCIFERASE INFECTION ASSAY - IC50): 9.05 µM | IC90: > 10 µM

COc1cc(NC(=O)N2CCc3nc(Nc4cc(C)cc(C)c4)ncc3C2)cc(OC)c1OC
IC50 (PBLUC_HILL_SLOPE 3.8, PBLUC_R_SQUARED 0.0984, read-out: LUCIFERASE INFECTION ASSAY - IC50): 4.59 µM | IC90: > 7.12 µM

O=C(Cn1cnc2c(cnn2-c2ccccc2[N+](=O)[O-])c1=O)Nc1ccc(OCc2ccccc2)cc1
IC50 (PBLUC_HILL_SLOPE 3.88, PBLUC_R_SQUARED 0.658, read-out: LUCIFERASE INFECTION ASSAY - IC50): 7.44 µM | IC90: > 10 µM

CC(C)CN1C(=O)N(C)C(=O)C12CCN(Cc1cc3ccccc3s1)CC2
IC50 (PBLUC_HILL_SLOPE 3.77, PBLUC_R_SQUARED 0.71, read-out: LUCIFERASE INFECTION ASSAY - IC50): 6.78 µM | IC90: > 8.56 µM

CC(C)N(C(C)C)S(=O)(=O)c1ccc(NNC(=O)Nc2ccccc2F)nc1
IC50 (PBLUC_HILL_SLOPE 3.78, PBLUC_R_SQUARED 0.132, read-out: LUCIFERASE INFECTION ASSAY - IC50): 6.19 µM | IC90: > 10 µM

CCCn1c(N)c(C(=O)COC(=O)C2(c3ccc(F)cc3)CCCC2)c(=O)[nH]c1=O
IC50 (PBLUC_HILL_SLOPE 3.75, PBLUC_R_SQUARED 0.743, read-out: LUCIFERASE INFECTION ASSAY - IC50): 4.66 µM | IC90: 8.39 µM

O=C(CN1CCN(C(=O)/C=C/c2sc3ccccc3c2Cl)CC1)NC1CC1
IC50 (PBLUC_HILL_SLOPE 3.79, PBLUC_R_SQUARED 0.282, read-out: LUCIFERASE INFECTION ASSAY - IC50): 4.87 µM | IC90: 8.7 µM

Clc1ccc(Nc2nccc3nc(-c4ccccc4)[nH]c23)cc1
IC50 (PBLUC_HILL_SLOPE 3.81, PBLUC_R_SQUARED 0.353, read-out: LUCIFERASE INFECTION ASSAY - IC50): 6.7 µM | IC90: > 10 µM

NC(=O)C(C(=O)/C=C/c1c(Cl)cccc1Cl)=C1SCS1
IC50 (PBLUC_HILL_SLOPE 3.86, PBLUC_R_SQUARED 0.315, read-out: LUCIFERASE INFECTION ASSAY - IC50): 6.18 µM | IC90: > 10 µM

CCCCN(C)S(=O)(=O)c1ccc(NC(=O)c2cccc(C(F)(F)F)c2)cc1
IC50 (PBLUC_HILL_SLOPE 3.75, PBLUC_R_SQUARED 0.618, read-out: LUCIFERASE INFECTION ASSAY - IC50): 5.87 µM | IC90: > 10 µM

CC(C)(C)c1cc(NC(=O)CN2CCN(CCOc3ccccc3)CC2)n(-c2ccccc2)n1
IC50 (PBLUC_HILL_SLOPE 3.74, PBLUC_R_SQUARED 0.753, read-out: LUCIFERASE INFECTION ASSAY - IC50): 6.22 µM | IC90: > 10 µM

COc1ccc(-c2nc3ccc(NC(=O)Nc4ccc(F)c(Cl)c4)cn3n2)cc1
IC50 (PBLUC_HILL_SLOPE 3.84, PBLUC_R_SQUARED 0.577, read-out: LUCIFERASE INFECTION ASSAY - IC50): 4.62 µM | IC90: 8.19 µM

c1ccc(OCCCN2CCC(c3nc4ccccc4s3)CC2)cc1
IC50 (PBLUC_HILL_SLOPE 3.81, PBLUC_R_SQUARED 0.48, read-out: LUCIFERASE INFECTION ASSAY - IC50): 7.8 µM | IC90: > 9.36 µM

CN(c1ccccc1)c1ccc(/C=N/NC(=O)c2ccc3c(=O)n4c(nc3c2)CCCCC4)cc1
IC50 (PBLUC_HILL_SLOPE 3.8, PBLUC_R_SQUARED 0.483, read-out: LUCIFERASE INFECTION ASSAY - IC50): 6.28 µM | IC90: > 10 µM

CCCCOC1(c2ccc(C)cc2)N=C(SCC(=O)NCC(C)C)NN=C1c1ccc(C)cc1 (stereo unspecified)
IC50 (PBLUC_HILL_SLOPE 3.83, PBLUC_R_SQUARED 0.417, read-out: LUCIFERASE INFECTION ASSAY - IC50): 6.12 µM | IC90: > 10 µM

O=C(CN1CCN(CCOc2ccccc2)CC1)Nc1cc(C(F)(F)F)ccc1Cl
IC50 (PBLUC_HILL_SLOPE 3.77, PBLUC_R_SQUARED 0.518, read-out: LUCIFERASE INFECTION ASSAY - IC50): 7.08 µM | IC90: > 10 µM

Cc1nc(NCCCc2n[nH]c(N)c2C#N)c2c(-c3ccccc3)csc2n1
IC50 (PBLUC_HILL_SLOPE 3.76, PBLUC_R_SQUARED 0.424, read-out: LUCIFERASE INFECTION ASSAY - IC50): 5.44 µM | IC90: 9.77 µM

CCOC(=O)c1c(C)c(C)n(Cc2ccccc2)c1NC(=O)c1ccccc1
IC50 (PBLUC_HILL_SLOPE 3.81, PBLUC_R_SQUARED 0.298, read-out: LUCIFERASE INFECTION ASSAY - IC50): 6.38 µM | IC90: > 8.77 µM

Oc1cccc(-c2nccc3n[nH]c(-c4cccc(F)c4)c23)c1
IC50 (PBLUC_HILL_SLOPE 3.75, PBLUC_R_SQUARED 0.113, read-out: LUCIFERASE INFECTION ASSAY - IC50): 6.03 µM | IC90: > 10 µM
